Measured values from paper PMC7033309, “π-Helix controls activity of oxygen-sensing diguanylate cyclases” (Bioscience Reports, 2020).

Experiments:
PccGCS [1] = target: T1, PccGCS (Pectobacterium carotovorum, UniProt C6D9C2, H237A/K238A); test: EnzChek pyrophosphate diguanylate cyclase turnover assay with purified protein, […] GTP; type: biochemical
T1 construct: gene PC1_2619; full-length PccGCS H237A/K238A (His-tagged)
T1 sequence (C6D9C2 1-471 H237A/K238A): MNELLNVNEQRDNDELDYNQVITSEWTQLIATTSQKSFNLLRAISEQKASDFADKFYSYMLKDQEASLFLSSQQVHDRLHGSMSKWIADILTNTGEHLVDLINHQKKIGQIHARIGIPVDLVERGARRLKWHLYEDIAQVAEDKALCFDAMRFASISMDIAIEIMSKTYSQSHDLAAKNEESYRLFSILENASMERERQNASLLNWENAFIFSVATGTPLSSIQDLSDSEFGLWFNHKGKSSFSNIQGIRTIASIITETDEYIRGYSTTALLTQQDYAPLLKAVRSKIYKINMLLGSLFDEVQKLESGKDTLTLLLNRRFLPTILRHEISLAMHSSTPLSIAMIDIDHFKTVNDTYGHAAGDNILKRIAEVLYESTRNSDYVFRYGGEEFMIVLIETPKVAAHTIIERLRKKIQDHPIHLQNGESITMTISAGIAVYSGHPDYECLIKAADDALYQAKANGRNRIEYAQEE

PccGCS [2] = target: T2, PccGCS (Pectobacterium carotovorum, UniProt C6D9C2); test: as above; type: biochemical
T2 construct: gene PC1_2619; full-length PccGCS WT (His-tagged)

## Nc1nc2c(ncn2[C@@H]2O[C@H](COP(=O)(O)OP(=O)(O)OP(=O)(O)O)[C@@H](O)[C@H]2O)c(=O)[nH]1 [GTP]
PccGCS [1]
  EnzChek pyrophosphate diguanylate cyclase turnover assay with purified protein,: 0.0227 min⁻¹
PccGCS [2]
  EnzChek pyrophosphate diguanylate cyclase turnover assay with purified protein,: 0.759 min⁻¹
